Measurements reported in the supplement of paper PMC11208160.

Test: recombinant UMI read abundance after kanamycin selection (control-corrected) (log10(CPM+1)); higher = more efficient recombination; extreme values may be limits of the assay; sequences stand for … in AGTGCAGAGAAAATCGGCCAGTTTTCTCTGCCTGCAGTCCGCATGCCGTGGGACCCCTTGGGTTCTAACCTGTTGCCTAGATTTATGCAGCGGACTGCCTTTCTCCCAAAGTGATAAACCGG…AGGTTGGTTTCACT; site = the 11-nt donor
Outline: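 The measure is log10(CPM+1) for recombinant UMIs. These were PCR-amplified across the donor–target junction and sequenced after Escherichia coli carrying a donor and donor-binding-loop pair library and a target plasmid with T7-inducible IS621 bridge recombinase was plated on IPTG (0.07 mM) plus kanamycin or unselected. CPM were averaged over two replicates and scaled by control-derived factors.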
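Further: IS621 bridge recombinase in Escherichia coli cells against a fixed T5 target plasmid.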

“CCTTATACATGGACCGGTTTTCCCGGTAATCCGTATTTGGG (site CCTTATACTCC)” and “CCTTATACATGGACCGGTTTTCCCGGTAATCCGTATTTGGT (site CCTTATACTAC)” are within 0.2 log units of each other in “recombinant UMI read abundance (log10)” value: 0.016 for the first, 0.00722 for the second.

“CCTTCTGCATGGACCGGTTTTCCCGGTAATCCGTATTTGGA (site CCTTCTGCTTC)” and “CCTTTCGCATGGACCGGTTTTCCCGGTAATCCGTATTTGAT (site CCTTTCGCTAT)” are within 0.2 log units of each other in “recombinant UMI read abundance (log10)” value: 0.00377 for the first, 0.0105 for the second.

“CCTTTCTCATGGACCGGTTTTCCCGGTAATCCGTATTTGGG (site CCATTCTCTCC)” and “CCTTTCTCATGGACCGGTTTTCCCGGTAATCCGTATTTGGG (site CCCTTCTCTCC)” are within 0.2 log units of each other in “recombinant UMI read abundance (log10)” value: 0.00388 for the first, 0.0264 for the second.

“CCTTTCTCATGGACCGGTTTTCCCGGTAATCCGTATTTGGG (site CCGTTCTCTCC)” and “CCTTTCTCATGGACCGGTTTTCCCGGTAATCCGTATTTGGG (site CCTTTCTCTCC)” are within 0.2 log units of each other in “recombinant UMI read abundance (log10)” value: 0.011 for the first, 0 for the second.

“CCTTTGGCATGGACCGGTTTTCCCGGTAATCCGTATTTGCT (site CATTTGGCTAG)” and “CCTTTGGCATGGACCGGTTTTCCCGGTAATCCGTATTTGCT (site CCTTTGGCTAG)” are within 0.2 log units of each other in “recombinant UMI read abundance (log10)” value: 0.00684 for the first, 0.00901 for the second.

“CCTTTGGCATGGACCGGTTTTCCCGGTAATCCGTATTTGCT (site CGTTTGGCTAG)” and “CCTTTGGCATGGACCGGTTTTCCCGGTAATCCGTATTTGCT (site CTTTTGGCTAG)” are within 0.2 log units of each other in “recombinant UMI read abundance (log10)” value: 0 for the first, 0.00684 for the second.

“CGAAAACCATGGACCGGTTTTCCCGGTAATCCGTATTTGTT (site CGAAAACCTAA)” and “CGAAAACCATGGACCGGTTTTCCCGGTAATCCGTATTTGTT (site CGGAATCCTAA)” are the same in “recombinant UMI read abundance (log10)” value: 0 for the first, 0 for the second.

First: CGAACATCATGGACCGGTTTTCCCGGTAATCCGTATTTGAT (site CGAACATCTAT)
Second: CGAACATCATGGACCGGTTTTCCCGGTAATCCGTATTTGAT (site CGATCATCTAG)
The “recombinant UMI read abundance (log10)” value of the first is higher: 1.63 for the first, 0 for the second.

Going from “CGAAGTGCATGGACCGGTTTTCCCGGTAATCCGTATTTGGG (site CGAAGTGCTCC)” to “CGAATGCCATGGACCGGTTTTCCCGGTAATCCGTATTTGAC (site CGAATGCCTGT)”, the “recombinant UMI read abundance (log10)” value falls from 0.671 to 0.465.

Going from “CGACCATCATGGACCGGTTTTCCCGGTAATCCGTATTTGCT (site CGAACATCTAG)” to “CGACCATCATGGACCGGTTTTCCCGGTAATCCGTATTTGCT (site CGACCATCTAG)”, the “recombinant UMI read abundance (log10)” value rises from 1.13 to 2.13.

“CGACCATCATGGACCGGTTTTCCCGGTAATCCGTATTTGCT (site CGAGCATCTAG)” and “CGACCATCATGGACCGGTTTTCCCGGTAATCCGTATTTGCT (site CGATCATCTAG)” are the same in “recombinant UMI read abundance (log10)” value: 0 for the first, 0 for the second.

Going from “CGACGCGCATGGACCGGTTTTCCCGGTAATCCGTATTTGGG (site CGACGCGCTCC)” to “CGACTATCATGGACCGGTTTTCCCGGTAATCCGTATTTGTG (site CGACTATCTCA)”, the “recombinant UMI read abundance (log10)” value rises from 0.672 to 3.11.

Going from “CGACTCTCATGGACCGGTTTTCCCGGTAATCCGTATTTGAC (site CGACTCTCTGT)” to “CGAGAACCATGGACCGGTTTTCCCGGTAATCCGTATTTGAT (site CGAGAACCTAT)”, the “recombinant UMI read abundance (log10)” value falls from 2.88 to 0.

“CGAGAACCATGGACCGGTTTTCCCGGTAATCCGTATTTGAT (site CGCGAACCTAT)” and “CGAGAACCATGGACCGGTTTTCCCGGTAATCCGTATTTGAT (site CGGGAACCTAT)” are the same in “recombinant UMI read abundance (log10)” value: 0 for the first, 0 for the second.

“CGAGAACCATGGACCGGTTTTCCCGGTAATCCGTATTTGAT (site CGTGAACCTAT)” and “CGAGCACCATGGACCGGTTTTCCCGGTAATCCGTATTTGCT (site CGAGCACCTAG)” are the same in “recombinant UMI read abundance (log10)” value: 0 for the first, 0 for the second.

First: CGAGCGACATGGACCGGTTTTCCCGGTAATCCGTATTTGTT (site CGAACGACTAA)
Second: CGAGCGACATGGACCGGTTTTCCCGGTAATCCGTATTTGTT (site CGACCGACTAA)
The “recombinant UMI read abundance (log10)” value of the first is higher: 0.607 for the first, 0.0145 for the second.
